Experimental data: patent US20230117470A1, “SUBSTITUTED PYRAZOLE COMPOUNDS AS TOLL RECEPTOR INHIBITORS” (BRISTOL-MYERS SQUIBB COMPANY, priority 2019, published 2023)
pIC50: −log10 of the molar value.

How the values were obtained:
Assay type in all cases: cell-based
human TLR9 = molecular target: T1, human TLR9 (Homo sapiens, UniProt Q9NR96); assay: TLR9 inhibition reporter assay (HEK-Blue cells, SEAP reporter, ODN2006 stimulation); settings: HEK-Blue cells overexpressing human TLR9, SEAP reporter, ODN2006 5 nM
T1 construct: host or cells: HEK-Blue cells
T1 sequence (Q9NR96 26-1032): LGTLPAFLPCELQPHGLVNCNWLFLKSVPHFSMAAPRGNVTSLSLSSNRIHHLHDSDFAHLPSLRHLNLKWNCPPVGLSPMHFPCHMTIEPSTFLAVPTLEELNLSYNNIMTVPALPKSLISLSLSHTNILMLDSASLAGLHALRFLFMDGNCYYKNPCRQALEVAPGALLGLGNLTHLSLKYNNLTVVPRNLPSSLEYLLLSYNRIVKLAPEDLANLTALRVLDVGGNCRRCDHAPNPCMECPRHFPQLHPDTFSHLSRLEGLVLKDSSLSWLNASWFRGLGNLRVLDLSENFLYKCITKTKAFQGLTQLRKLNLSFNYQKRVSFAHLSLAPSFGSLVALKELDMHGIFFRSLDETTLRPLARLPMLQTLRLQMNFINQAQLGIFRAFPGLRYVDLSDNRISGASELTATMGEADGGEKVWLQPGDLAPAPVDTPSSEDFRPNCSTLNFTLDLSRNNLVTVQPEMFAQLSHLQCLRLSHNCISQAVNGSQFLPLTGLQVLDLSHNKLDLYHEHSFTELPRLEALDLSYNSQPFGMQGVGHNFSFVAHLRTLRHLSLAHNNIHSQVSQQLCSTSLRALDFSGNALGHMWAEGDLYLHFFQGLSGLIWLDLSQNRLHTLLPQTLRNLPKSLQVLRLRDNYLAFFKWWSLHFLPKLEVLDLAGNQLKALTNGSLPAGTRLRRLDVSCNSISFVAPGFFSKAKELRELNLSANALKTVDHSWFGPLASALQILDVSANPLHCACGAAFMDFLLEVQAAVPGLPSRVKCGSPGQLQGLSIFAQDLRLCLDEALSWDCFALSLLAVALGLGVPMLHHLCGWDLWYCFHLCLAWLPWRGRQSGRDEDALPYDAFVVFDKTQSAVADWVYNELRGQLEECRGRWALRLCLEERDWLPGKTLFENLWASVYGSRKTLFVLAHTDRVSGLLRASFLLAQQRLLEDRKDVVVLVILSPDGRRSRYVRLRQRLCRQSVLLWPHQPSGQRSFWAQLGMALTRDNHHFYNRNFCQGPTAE
In short: (§1)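 Cells were pre-treated 30 min at room temperature with compound (final 0.05 nM–50 μM), then stimulated with gardiquimod 7.5 μM (TLR7), R848 15.9 μM (TLR8) or ODN2006 5 nM (TLR9). SEAP was read after 22 h at 37° C; percent inhibition scaled between agonist+DMSO and known-inhibitor wells.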

human TLR8 = molecular target: T2, human TLR8 (Homo sapiens, UniProt Q9NR97); assay: TLR8 inhibition reporter assay (HEK-Blue cells, SEAP reporter, R848 stimulation); settings: HEK-Blue cells overexpressing human TLR8, SEAP reporter, R848 15.9 μM
T2 construct: host or cells: HEK-Blue cells
T2 sequence (Q9NR97 27-1041): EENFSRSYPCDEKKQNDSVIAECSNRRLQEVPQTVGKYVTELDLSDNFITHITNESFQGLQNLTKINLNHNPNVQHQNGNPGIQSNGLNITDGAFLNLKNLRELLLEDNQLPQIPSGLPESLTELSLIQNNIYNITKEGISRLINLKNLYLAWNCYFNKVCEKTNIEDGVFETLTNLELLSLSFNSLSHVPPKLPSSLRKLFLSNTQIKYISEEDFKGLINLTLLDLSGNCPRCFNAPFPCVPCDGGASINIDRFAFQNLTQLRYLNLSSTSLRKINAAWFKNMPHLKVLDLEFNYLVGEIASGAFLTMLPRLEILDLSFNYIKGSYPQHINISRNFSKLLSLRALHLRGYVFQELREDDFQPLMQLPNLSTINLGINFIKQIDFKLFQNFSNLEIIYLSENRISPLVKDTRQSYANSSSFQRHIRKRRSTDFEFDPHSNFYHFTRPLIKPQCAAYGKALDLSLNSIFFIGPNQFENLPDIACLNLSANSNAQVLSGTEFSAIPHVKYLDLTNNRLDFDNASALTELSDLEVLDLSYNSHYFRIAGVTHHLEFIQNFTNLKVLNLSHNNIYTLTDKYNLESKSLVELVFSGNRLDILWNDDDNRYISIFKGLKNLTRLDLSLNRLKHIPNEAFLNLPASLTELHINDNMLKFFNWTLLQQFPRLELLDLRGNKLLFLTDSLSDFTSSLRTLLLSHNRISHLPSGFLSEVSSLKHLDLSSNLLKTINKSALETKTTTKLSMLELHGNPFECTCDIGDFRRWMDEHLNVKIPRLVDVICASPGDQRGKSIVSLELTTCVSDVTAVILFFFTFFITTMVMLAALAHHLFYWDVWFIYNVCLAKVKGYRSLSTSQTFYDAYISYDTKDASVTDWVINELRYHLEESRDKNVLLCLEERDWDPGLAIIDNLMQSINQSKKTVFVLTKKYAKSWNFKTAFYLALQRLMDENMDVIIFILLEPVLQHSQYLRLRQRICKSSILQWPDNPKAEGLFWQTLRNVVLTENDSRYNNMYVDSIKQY
In short: as §1

human TLR7 = molecular target: T3, human TLR7 (Homo sapiens, UniProt Q9NYK1); assay: TLR7 inhibition reporter assay (HEK-Blue cells, SEAP reporter, gardiquimod stimulation); settings: HEK-Blue cells overexpressing human TLR7, SEAP reporter, gardiquimod 7.5 μM
T3 construct: host or cells: HEK-Blue cells
T3 sequence (Q9NYK1 27-1049): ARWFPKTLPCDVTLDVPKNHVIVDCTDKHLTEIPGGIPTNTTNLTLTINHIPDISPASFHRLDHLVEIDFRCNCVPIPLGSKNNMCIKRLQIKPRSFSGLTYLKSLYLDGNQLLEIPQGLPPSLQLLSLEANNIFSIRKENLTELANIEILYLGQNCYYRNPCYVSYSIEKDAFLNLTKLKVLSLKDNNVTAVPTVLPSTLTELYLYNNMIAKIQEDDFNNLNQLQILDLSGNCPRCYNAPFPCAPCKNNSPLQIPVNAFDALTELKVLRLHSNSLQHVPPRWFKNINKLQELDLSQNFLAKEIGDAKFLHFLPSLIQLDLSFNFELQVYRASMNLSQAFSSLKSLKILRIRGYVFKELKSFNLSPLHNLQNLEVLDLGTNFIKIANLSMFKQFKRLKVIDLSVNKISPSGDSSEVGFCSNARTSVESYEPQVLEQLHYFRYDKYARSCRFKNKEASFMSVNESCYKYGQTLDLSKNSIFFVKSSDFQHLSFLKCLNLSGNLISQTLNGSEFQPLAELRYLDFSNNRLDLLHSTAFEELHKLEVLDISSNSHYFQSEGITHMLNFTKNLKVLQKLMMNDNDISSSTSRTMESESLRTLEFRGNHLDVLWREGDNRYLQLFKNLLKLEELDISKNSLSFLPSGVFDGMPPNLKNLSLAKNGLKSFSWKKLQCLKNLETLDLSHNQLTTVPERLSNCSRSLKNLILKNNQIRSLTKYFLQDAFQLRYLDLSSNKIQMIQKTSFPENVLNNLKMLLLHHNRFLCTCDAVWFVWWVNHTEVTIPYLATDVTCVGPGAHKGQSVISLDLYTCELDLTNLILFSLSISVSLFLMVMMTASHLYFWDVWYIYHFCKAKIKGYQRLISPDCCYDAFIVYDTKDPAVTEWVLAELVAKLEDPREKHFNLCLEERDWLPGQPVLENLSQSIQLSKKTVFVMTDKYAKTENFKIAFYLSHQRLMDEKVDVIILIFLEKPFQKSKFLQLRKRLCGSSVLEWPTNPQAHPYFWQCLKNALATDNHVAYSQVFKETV
In short: as §1

Structure (SMILES)	pIC50 (human TLR9)	pIC50 (human TLR8)	pIC50 (human TLR7)
Cc1cc(-c2[nH]nc(C(=O)NCC3CN(C(C)C)CCO3)c2C(C)C)cn2ncnc12 (stereo not drawn) [Example 135]	4.65	7.41	8.17
COCCN1CCC(NC(=O)c2n[nH]c(-c3cc(C)c4ncnn4c3)c2C(C)C)CC1 [Example 171, 4-isopropyl-N-(1-(2-methoxyethyl)piperidin-4-yl)-5-(8-methyl-[1,2,4]triazolo[1,5-a]pyridin-6-yl)-1H-pyrazole-3-carboxamide]	6.06	8.66	9.11
Cc1cc(-c2[nH]nc(-c3ccc(N4CC(N(C)C)C4)cc3)c2C(C)C)cn2ncnc12 [Example 405, 1-(4-(4-isopropyl-5-(8-methyl-[1,2,4]triazolo[1,5-a]pyridin-6-yl)-1H-pyrazol-3-yl)phenyl)-N,N-dimethylazetidin-3-amine]	4.42	6.67	7.11
Cc1cc(-c2[nH]nc(C(=O)N3CC[C@H](N(C)C)C3)c2C(C)C)cn2ncnc12 [Example 22]	5.31	9.05	8.91
COc1cc(-c2[nH]nc(-c3ccc(C4CCN(C5CCOCC5)CC4)cc3)c2C(C)C)cn2ncnc12 [Example 313]	< 4.30	8.76	8.43
COc1ncc(CN[C@H]2CC[C@H](NC(=O)c3n[nH]c(-c4cc(C)c5ncnn5c4)c3C(C)C)CC2)cn1 [Example 114]	5.84	8.85	8.44
Cc1cc(-c2[nH]nc(C(=O)N[C@H]3CC[C@H](NC(C)C(C)C)CC3)c2C(C)C)cn2ncnc12 (stereo partly drawn) [Example 118]	5.48	8.90	8.70
Cc1c(C(=O)NC2CCN(C)CC2)n[nH]c1-c1cc(C)c2ncnn2c1 [compound 180]	5.28	8.43	8.45
CCN1CCC(c2ccc(-c3n[nH]c(-c4cc(OC)c5ncnn5c4)c3C(C)C)nc2)CC1 [Example 347, 6-(3-(5-(1-ethylpiperidin-4-yl)pyridin-2-yl)-4-isopropyl-1H-pyrazol-5-yl)-8-methoxy-[1,2,4]triazolo[1,5-a]pyridine]	< 4.30	7.35	7.64
Cc1cc(-c2[nH]nc(C(=O)NC3CCN(C)CC3)c2C(C)C)cn2ncnc12 [Example 8]	4.51	8.27	8.61
COc1cc(-c2[nH]nc(-c3ccc(C4CCN(CCS(C)(=O)=O)CC4)cn3)c2C(C)C)cn2ncnc12 [Example 392]	< 4.30	6.39	6.62
Cc1cc(-c2[nH]nc(C(=O)N(C)C3CCN(C)CC3)c2C(C)C)cn2ncnc12 [Example 6]	5.96	7.68	8.69
Cc1cc(-c2[nH]nc(C(=O)N3CC(N(C)C)C3)c2C(C)C)cn2ncnc12 [Example 21]	< 4.30	7.41	8.16
Cc1cc(-c2[nH]nc(C(=O)N[C@@H]3CCCNC3)c2C(C)C)cn2ncnc12 [Example 52]	4.75	8.37	8.54
Cc1cc(-c2[nH]nc(C(=O)N[C@H]3CC[C@@H](N(CCC(C)C)CCC(C)C)CC3)c2C(C)C)cn2ncnc12 [Example 91]	5.17	8.09	8.40
Cc1cc(-c2[nH]nc(C(=O)N[C@H]3CC[C@H](NCC(C)(C)C)CC3)c2C(C)C)cn2ncnc12 [Example 106]	4.84	7.04	8.65
COc1cc(-c2[nH]nc(-c3cnc(C4CCN(CC5CC5)CC4)cn3)c2C(C)C)cn2ncnc12 [Example 378]	< 4.30	7.91	7.53
Cc1cc(-c2[nH]nc(-c3ncc4c(n3)CCNC4)c2C(C)C)cn2ncnc12 [Example 222]	4.52	8.71	9.12
Cc1cc(-c2[nH]nc(C(=O)N[C@H]3CC[C@@H](NC(C)C)CC3)c2C(C)C)cn2ncnc12 [Example 85]	5.16	7.76	8.58
Cc1cc(-c2[nH]nc(C(=O)NCCN3CCOCC3)c2C(C)C)cn2ncnc12 [Example 3]	4.73	8.52	8.74
Cc1cc(-c2[nH]nc(-c3ccc(C4CCNCC4)nc3)c2C(C)C)cn2ncnc12 [Example 340]	5.28	8.47	8.33
Cc1cc(-c2[nH]nc(C(=O)N3CCC(C(N)=O)CC3)c2C(C)C)cn2ncnc12 [Example 15]	5.11	8.50	8.38
Cc1cc(-c2[nH]nc(C(=O)N(C)C3CCN(C)C3)c2C(C)C)cn2ncnc12 (stereo not drawn) [Example 25]	6.35	7.99	7.59
Cc1cc(-c2[nH]nc(-c3ccc(C4CN(C(C)C)C4)cc3)c2C(C)C)cn2ncnc12 [Example 327]	4.80	8.15	8.12
